Data reported in patent publication US20070014721A1, “Hydrazide conjugates as imaging agents” (priority 2005, published 2007).
*1 amine or outer side, *2 acyl side, *3 side chain or, on linkers, in order; H or OH if unused. Where a SMILES comes first, the peptide text is derived from it. [ ]: non-standard residue; d: D form. The star is where a group is joined. PABC = O=C(OCc1ccc(N[*:1])cc1)[*:2]; hPhe = N[C@@H](CCc1ccccc1)C(=O)O; X1 = CC(=O)NCCCCCC(=O)NN*; Boc = CC(C)(C)OC(=O)*; Nlys = NCCCCNCC(=O)O; X2 = CC(=O)NN*

Tests used:
[1] = system: aorta of atherosclerotic rabbit model; conditions: in vivo
Method: Atherosclerosis was induced in New Zealand White male rabbits (3 kg) with aortic balloon endothelial injury followed by feeding a 0.5% cholesterol diet for 22 weeks. Test compounds were radiolabeled(^14C, ^99mTc, or ^111In as described above) and administered at 0.02-1.0 mCi/kg to anesthetized rabbits in a single, bolus injection vis the marginal ear vein. Blood samples were collected from the central ear artery at 0, 2, 5, 7, 10, 15, 30, and 60 minutes post injection. Rabbits were euthanized at 60 minutes post injection for tissue harvesting (blood, muscle, bile, urine, kidney, liver, spleen, heart, lung, colon, small intestine, stomach, testes). Abdominal aorta (upper, middle, and lower) and left and right femoral arteries were collected. Both plaque bearing and non-plaque bearing rabbits were administered compounds to compare aorta uptake. All samples were weighed and assayed for radioactivity. Tissue uptake is expressed as percent of injected dose per gram of tissue (% ID/g). The aorta to blood ratios were calculated from the % ID/g data.

[2] = system: aorta of apolipoprotein E (apoE) knockout mouse; conditions: in vivo
Method: (§1) Mice were fed a high-fat diet to accelerate plaque formation and compounds were tested in the mice between 37-41 weeks on diet. Test compounds were radiolabeled (^14C, ^99mTc, or ^111In as described above) and administered at 0.02-4.0 mCi/kg to anesthetized mice in a single, bolus injection via the tail vein. Blood samples were collected via the tail between 0-30 minutes postinjection for pharmacokinetic analysis and mice were euthanized by CO2 at 60 minutes for tissue harvesting. The aorta were flushed with saline through the left ventricle exiting via the femoral vein. The aorta were then removed from the heart to the renal bifurcation and additional tissue samples collected (blood, muscle, liver, kidney, heart, lung, spleen and innominate artery). All samples were weighed and assayed for radioactivity. Tissue uptake is expressed as percent of injected dose per gram of tissue (% ID/g). The aorta to blood ratios were calculated from the % ID/g data.

[3] = system: Rabbit plaque aorta or normal rabbit aorta; test: Ex vivo blood vessel binding assay; set-up: species or system New Zealand white rabbits; conditions: radiolabeled compound incubated with rabbit aorta (0.5 cm) in phosphate buffered saline for 2 hours at 37° C; bound compound as percentage of the incubated compound
Excerpt: Normal aorta was obtained from New Zealand white rabbits. Aorta bearing atherosclerotic plaque was obtained from New Zealand white rabbits balloon stripped along the abdominal aorta and placed on a high fat diet (0.5% cholesterol) for 16-22 weeks. Vascular injury was produced with a 3-F Fogarty catheter along the abdominal aorta and left iliofemoral artery. This procedure generates an accelerated complex lesion development with a lipid rich core covered by a fibrous cap in rabbits. Rabbit plaque aorta or normal rabbit aorta (0.5 cm) was incubated with 10 nCi of ^14C labeled compound or 1.5 μCi of ^99m Tc labeled compound or 0.135 μCi of ^111In labeled compound or 0.135 μCi of ^68Ga labeled compound or 0.135 µCi of ^153Gd labeled compound diluted in phosphate buffered saline (450 μL) for 2 hours at 37° C. The supernatant from this sample was collected and analyzed by HPLC to determine compound stability in presence of blood vessels. The blood vessel tissue was then washed with phosphate buffered saline (3×10 mL). Phosphate buffered saline (10 ml) was added to the tissue and incubated at 37° C. for 1 hour. The tissue was then washed with phosphate buffered saline (3×10 mL). The washed tissue was oxidized in a tissue oxidizer for C-14 labeled compounds. The counts in the oxidized tissue were determined on a beta counter. Blood vessels incubated with ^99m Tc labeled compound or ^111In labeled compound or ^68Ga labeled compound or ^153Gd labeled compound were counted on a gamma counter. The amount of compound bound to the tissue was determined as a percentage of the incubated compound. This was calculated using the following formula: [formula]

[4] = mouse, in vivo, iv
Method: as §1

Aminopeptidase N = Aminopeptidase N (Homo sapiens, UniProt P15144); test: Aminopeptidase N cleavage of test substrates; type: biochemical; conditions: Boc removed from N-terminus before assay; 0.5 mM test substrate, 0.02 U APN, 37° C, 25 minutes
Method: The test compounds were dissolved in 50:50 TFA:dichloromethane and allowed to stand at ambient temperature under nitrogen for 10 minutes to remove the Boc protecting group from the N-terminus amino acid. The solutions were concentrated and the resulting oily residue was dissolved in 50:50 acetonitrile:water and lyophilized. The resulting flocculent solids were used directly in the APN assay.
Aminopeptidase N cleaves amino acids at the N-terminus of proteins and peptides attached to another amino acid. A stock solution of test substrates was prepared in 100% DMSO at a concentration of 8 mM. The stock solution (4.7 μL) was added to buffer (50 mM Hepes/pH 7.5, 10 mM CaCl2, 0.1% Brij) for a final concentration of 0.5 mM test substrate in the reaction. To this reaction solution 0.02 U of the enzyme (APN) was added, the solution was mixed, and immediately 30 μL of the mix was transferred to HPLC vials containing acetic acid (15 μL) for t=0 minutes measurement. The rest of the mix in the test tube was incubated at 37° C. for 25 minutes. At the 25 minutes time point 30 μL of the mix was transferred to an HPLC vial containing acetic acid (15 μl) for the t=25 minute measurement. The test substrates and products were separated by reversed phase HPLC on a Zorbax SB-C18 column (4.6×150 mm, 5 micron) using a water:acetonitrile gradient containing 0.1% TFA at a flow rate of 1.0 mL/min and with UV detection. The peak areas were integrated and the substrate peak area was used to determine rate constant k in the following equation: K={(% hydrolyzed/100)*[S]}/[E]*[time] where S=test substrate concentration in μmoles
E=aminopeptidase N concentration in units/ml
K=μmoles of substrate hydrolyzed/minute/unit enzyme

Sequence of Aminopeptidase N (P15144 whole entry, species assumed): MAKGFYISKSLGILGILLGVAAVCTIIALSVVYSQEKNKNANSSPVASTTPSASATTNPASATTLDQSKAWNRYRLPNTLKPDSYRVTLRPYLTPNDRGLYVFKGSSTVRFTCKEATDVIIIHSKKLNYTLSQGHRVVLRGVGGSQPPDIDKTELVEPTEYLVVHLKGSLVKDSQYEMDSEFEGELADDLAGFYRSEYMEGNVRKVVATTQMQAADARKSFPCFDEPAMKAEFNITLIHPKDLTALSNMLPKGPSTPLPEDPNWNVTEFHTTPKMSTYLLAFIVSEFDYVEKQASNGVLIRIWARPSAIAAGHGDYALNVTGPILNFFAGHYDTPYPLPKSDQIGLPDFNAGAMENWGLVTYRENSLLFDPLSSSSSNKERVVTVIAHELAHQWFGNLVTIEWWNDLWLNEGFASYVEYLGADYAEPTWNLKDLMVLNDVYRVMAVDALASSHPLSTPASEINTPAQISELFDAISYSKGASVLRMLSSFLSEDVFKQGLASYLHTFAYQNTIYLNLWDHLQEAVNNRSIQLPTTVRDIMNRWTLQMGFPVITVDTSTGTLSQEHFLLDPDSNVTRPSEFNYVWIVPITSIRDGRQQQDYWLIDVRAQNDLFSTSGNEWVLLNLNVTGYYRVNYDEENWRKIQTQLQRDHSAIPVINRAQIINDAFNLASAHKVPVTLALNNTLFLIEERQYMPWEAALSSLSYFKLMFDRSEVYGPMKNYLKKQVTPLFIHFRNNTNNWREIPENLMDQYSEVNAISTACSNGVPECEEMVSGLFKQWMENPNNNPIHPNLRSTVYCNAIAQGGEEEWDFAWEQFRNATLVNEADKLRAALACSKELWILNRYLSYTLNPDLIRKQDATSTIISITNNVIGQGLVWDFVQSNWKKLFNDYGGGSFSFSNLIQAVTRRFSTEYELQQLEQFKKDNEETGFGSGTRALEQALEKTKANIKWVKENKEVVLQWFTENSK

| Compound | Aorta/Blood (Plaque Rabbit) [1] | Aorta/Blood Ratio [2] | Tissue Binding % [3] [%] | tissue uptake at 1 h [4] [%ID/g] | Rate of APN Hydrolysis of Test Substrates (Aminopeptidase N) [μmoles/minute/U] |
| --- | --- | --- | --- | --- | --- |
| CC(=O)NCCCCCC(=O)NNC(=O)[C@@H](CC(C)C)NC(=O)OCc1ccc(NC(=O)[C@H](CC(C)C)NC(=O)[C@H](CC(C)C)NC(=O)CN(CCCCNC(=O)OC(C)(C)C)C(=O)[C@H](CC(C)C)NC(=O)[C@@H]2CCCN2C(C)=O)cc1 [Example 128, Ac-PL-NLys(Boc)˜LL-PABA-CO-d-Leu-Ahxh-H] (Ac-PL[Nlys](Boc)LL[PABC][dL]-X1) | 1.93 | 2.3 | 5.77 | – | – |
| CC(=O)NNC(=O)[C@@H](CC(C)C)NC(=O)OCc1ccc(NC(=O)[C@H](CC(C)C)NC(=O)[C@H](CCc2ccccc2)NC(=O)CN(CCCCNC(=O)OC(C)(C)C)C(=O)[C@H](CC(C)C)NC(=O)[C@@H]2CCCN2C(C)=O)cc1 [Example 142] (Ac-PL[Nlys](Boc)[hPhe]L[PABC][dL]-X2) | – | 1.9 | – | 2.1 | – |
| CC(C)C[C@H](NC(=O)OC(C)(C)C)C(=O)Nc1ccc(C[C@@H](NC(=O)OC(C)(C)C)C(=O)NNC(=O)CCCCCN)cc1.O=CO [Example 83, N-[(2R)-3-(4-{(2S)-2-[(tert-Butoxy)carbonylamino]-4-methylpentanoylamino}phenyl)-2-[(tert-butoxy)carbonylamino]propanoylamino]-6-aminohexanamide, Formic Acid Salt] | – | – | – | – | 0.43 |
| Boc-d-Phe[p-(Ac-PL-NLys(Boc)˜Hphe-L-NH)]-Ahxh-H [Example 147] | 9.05 | 8.8 | 44.73 | – | – |
